Reference: ChEMBL document CHEMBL1132397, “Synthesis of 5,8-dimethoxy-3-hydroxy-4-quinolone, a reported inhibitor of HIV RT, and evidence the original proposed structure was incorrect” (Bioorg Med Chem Lett, 1999)
Blank lines part the entries; values can stand above or below the molecule they belong to.

Experiments:
[1] = biological target: Human immunodeficiency virus type 1 protease (Human immunodeficiency virus 1, UniProt Q72874); experiment: Inhibition of RNA-dependent DNA polymerase activity against wild-type HIV-1 RT at a concentration of 100 uM; No inhibition
[2] = biological target: T1, Human immunodeficiency virus type 1 reverse transcriptase (Human immunodeficiency virus 1, UniProt Q72547); experiment: Inhibitory activity against reverse transcriptase of HIV-1
[3] = biological target: T1, Human immunodeficiency virus type 1 reverse transcriptase; experiment: Inhibitory activity against reverse transcriptase of HIV; Inactive

Structure (SMILES): COc1ccc(OC)c2c(O)c(O)cnc12
Ki [1]: Not Active

Ki [2]: 490 nM
Structure (SMILES): Oc1cnc2c(O)ccc(O)c2c1O

Structure (SMILES): COc1cnc2c(OC)ccc(OC)c2c1O
Ki [3]: Not Active
